# Measurements: paper PMC5862592, “CDK8/19 inhibition induces premature G1/S transition and ATR-dependent cell death in prostate cancer cells” (Oncotarget, 2018)
# Like-named read-outs stand apart in the source and are kept apart here.
# Key:
# Assay in all cases: biochemical
# Design in all cases: KINOMEscan active site-directed competition binding assay (DiscoveRx), 456 kinases, per cent of control at 300 nM
# Details in all cases: read-out: Percent of Control (%)
# ASK1 = biological target: T1, ASK1 (Homo sapiens, UniProt Q99683)
# T1 construct: gene MAP3K5
# In short: (§1)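 Values reflect active-site competition binding from a screen of 456 kinases, with test compounds at a fixed 300 nmol/L.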
# AXL = AXL (Homo sapiens, UniProt P30530)
# In short: as §1
# BMPR2 = BMPR2 (Homo sapiens, UniProt Q13873)
# In short: as §1
# CAMK2A = CAMK2A (Homo sapiens, UniProt Q9UQM7)
# In short: as §1
# CDK3 = CDK3 (Homo sapiens, UniProt Q00526)
# In short: as §1
# CLK1 = CLK1 (Homo sapiens, UniProt P49759)
# In short: as §1
# CSF1R-autoinhibited = CSF1R-autoinhibited (Homo sapiens, UniProt P07333)
# In short: as §1
# EGFR(G719C) = EGFR(G719C) (Homo sapiens, UniProt P00533, G719C)
# In short: as §1
# EGFR(L861Q) = EGFR(L861Q) (Homo sapiens, UniProt P00533, L861Q)
# In short: as §1
# FLT3(D835H) = FLT3(D835H) (Homo sapiens, UniProt P36888, D835H)
# In short: as §1
# GRK4 = GRK4 (Homo sapiens, UniProt P32298)
# In short: as §1
# [1] = biological target: T2, JAK1(JH1domain-catalytic) (Homo sapiens, UniProt P23458)
# T2 construct: JH1domain-catalytic
# In short: as §1
# LKB1 = biological target: T3, LKB1 (Homo sapiens, UniProt Q15831)
# T3 construct: gene STK11
# In short: as §1
# MST4 = biological target: T4, MST4 (Homo sapiens, UniProt Q9P289)
# T4 construct: gene STK26
# In short: as §1
# NEK1 = NEK1 (Homo sapiens, UniProt Q96PY6)
# In short: as §1
# PAK4 = PAK4 (Homo sapiens, UniProt O96013)
# In short: as §1
# PHKG1 = PHKG1 (Homo sapiens, UniProt Q16816)
# In short: as §1
# PIK3CA(I800L) = PIK3CA(I800L) (Homo sapiens, UniProt P42336, I800L)
# In short: as §1
# PIK3CB = PIK3CB (Homo sapiens, UniProt P42338)
# In short: as §1
# PIK3CG = PIK3CG (Homo sapiens, UniProt P48736)
# In short: as §1
# PIM2 = PIM2 (Homo sapiens, UniProt Q9P1W9)
# In short: as §1
# PLK3 = PLK3 (Homo sapiens, UniProt Q9H4B4)
# In short: as §1
# Sequence of CLK1 (P49759 whole entry): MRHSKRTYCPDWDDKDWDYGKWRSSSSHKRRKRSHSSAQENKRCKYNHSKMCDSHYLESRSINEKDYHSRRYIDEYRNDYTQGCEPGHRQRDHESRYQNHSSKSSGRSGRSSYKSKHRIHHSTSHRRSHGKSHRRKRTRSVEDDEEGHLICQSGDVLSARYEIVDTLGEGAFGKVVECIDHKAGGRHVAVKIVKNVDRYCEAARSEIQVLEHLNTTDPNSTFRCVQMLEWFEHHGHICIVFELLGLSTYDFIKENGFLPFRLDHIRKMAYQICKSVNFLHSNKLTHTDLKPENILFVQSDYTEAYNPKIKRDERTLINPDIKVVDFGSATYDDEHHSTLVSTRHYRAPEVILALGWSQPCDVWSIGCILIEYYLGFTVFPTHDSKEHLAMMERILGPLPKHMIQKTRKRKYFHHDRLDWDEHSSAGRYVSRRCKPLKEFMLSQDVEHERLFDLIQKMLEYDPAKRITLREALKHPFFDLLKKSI
# T4 sequence (Q9P289 whole entry): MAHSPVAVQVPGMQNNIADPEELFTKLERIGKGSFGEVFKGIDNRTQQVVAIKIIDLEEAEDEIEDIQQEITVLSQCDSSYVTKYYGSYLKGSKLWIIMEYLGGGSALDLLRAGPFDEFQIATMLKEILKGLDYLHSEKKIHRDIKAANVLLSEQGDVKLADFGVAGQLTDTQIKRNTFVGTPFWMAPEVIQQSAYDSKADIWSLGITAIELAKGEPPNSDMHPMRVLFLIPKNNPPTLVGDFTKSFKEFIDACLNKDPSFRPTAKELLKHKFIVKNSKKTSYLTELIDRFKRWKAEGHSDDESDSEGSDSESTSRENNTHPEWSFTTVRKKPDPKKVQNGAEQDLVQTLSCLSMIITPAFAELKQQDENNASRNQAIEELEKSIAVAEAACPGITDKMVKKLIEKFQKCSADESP
# T3 sequence (Q15831 whole entry): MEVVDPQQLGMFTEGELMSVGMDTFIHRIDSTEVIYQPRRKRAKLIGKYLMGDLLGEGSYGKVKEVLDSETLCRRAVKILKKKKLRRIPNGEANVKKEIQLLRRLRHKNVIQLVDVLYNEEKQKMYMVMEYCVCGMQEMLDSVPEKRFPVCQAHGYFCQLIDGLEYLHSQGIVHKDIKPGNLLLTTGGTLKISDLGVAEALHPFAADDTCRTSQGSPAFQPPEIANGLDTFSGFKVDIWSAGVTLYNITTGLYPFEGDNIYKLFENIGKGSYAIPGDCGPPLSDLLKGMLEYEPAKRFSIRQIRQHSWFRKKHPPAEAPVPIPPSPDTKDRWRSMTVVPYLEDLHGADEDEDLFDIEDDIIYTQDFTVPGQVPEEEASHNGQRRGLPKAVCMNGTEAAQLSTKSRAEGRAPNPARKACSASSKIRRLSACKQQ
# Sequence of GRK4 (P32298 whole entry): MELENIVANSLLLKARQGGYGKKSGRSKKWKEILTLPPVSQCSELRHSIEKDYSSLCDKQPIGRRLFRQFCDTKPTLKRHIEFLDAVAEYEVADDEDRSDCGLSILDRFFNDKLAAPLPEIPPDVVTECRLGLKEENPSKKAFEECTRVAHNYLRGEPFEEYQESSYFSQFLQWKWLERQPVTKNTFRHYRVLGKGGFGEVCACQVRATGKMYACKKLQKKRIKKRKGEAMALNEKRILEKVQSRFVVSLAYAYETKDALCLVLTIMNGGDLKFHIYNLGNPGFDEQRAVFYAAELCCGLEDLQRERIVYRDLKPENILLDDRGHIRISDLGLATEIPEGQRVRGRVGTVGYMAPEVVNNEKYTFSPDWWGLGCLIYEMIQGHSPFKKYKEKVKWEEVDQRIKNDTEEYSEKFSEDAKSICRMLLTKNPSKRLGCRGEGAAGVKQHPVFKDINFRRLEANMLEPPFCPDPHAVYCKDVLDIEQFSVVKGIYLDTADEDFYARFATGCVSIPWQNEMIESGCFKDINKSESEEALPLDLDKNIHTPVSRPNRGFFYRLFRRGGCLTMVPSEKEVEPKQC
# Sequence of AXL (P30530 whole entry): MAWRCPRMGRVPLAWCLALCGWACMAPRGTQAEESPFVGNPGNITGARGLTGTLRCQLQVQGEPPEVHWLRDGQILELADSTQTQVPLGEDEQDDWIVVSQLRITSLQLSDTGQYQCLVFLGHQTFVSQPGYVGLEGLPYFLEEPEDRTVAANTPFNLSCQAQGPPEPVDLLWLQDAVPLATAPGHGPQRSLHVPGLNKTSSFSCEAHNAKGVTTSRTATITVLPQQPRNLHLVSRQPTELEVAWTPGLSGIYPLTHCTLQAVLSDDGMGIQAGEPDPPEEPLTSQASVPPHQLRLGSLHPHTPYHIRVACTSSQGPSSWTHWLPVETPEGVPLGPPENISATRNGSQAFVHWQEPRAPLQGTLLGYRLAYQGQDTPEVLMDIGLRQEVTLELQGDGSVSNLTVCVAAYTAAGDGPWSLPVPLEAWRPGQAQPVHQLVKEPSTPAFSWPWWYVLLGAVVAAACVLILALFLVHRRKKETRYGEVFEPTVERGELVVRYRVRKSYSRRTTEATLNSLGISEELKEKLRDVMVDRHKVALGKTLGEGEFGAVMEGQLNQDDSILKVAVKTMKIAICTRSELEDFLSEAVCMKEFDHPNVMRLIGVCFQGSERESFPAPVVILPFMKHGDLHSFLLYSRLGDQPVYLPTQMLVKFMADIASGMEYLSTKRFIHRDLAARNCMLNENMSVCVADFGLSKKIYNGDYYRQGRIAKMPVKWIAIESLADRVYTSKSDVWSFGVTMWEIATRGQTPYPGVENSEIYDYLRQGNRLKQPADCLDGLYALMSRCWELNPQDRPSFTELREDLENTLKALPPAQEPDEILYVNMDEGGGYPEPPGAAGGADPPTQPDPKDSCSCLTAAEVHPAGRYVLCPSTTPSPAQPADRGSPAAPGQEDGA
# T1 sequence (Q99683 whole entry): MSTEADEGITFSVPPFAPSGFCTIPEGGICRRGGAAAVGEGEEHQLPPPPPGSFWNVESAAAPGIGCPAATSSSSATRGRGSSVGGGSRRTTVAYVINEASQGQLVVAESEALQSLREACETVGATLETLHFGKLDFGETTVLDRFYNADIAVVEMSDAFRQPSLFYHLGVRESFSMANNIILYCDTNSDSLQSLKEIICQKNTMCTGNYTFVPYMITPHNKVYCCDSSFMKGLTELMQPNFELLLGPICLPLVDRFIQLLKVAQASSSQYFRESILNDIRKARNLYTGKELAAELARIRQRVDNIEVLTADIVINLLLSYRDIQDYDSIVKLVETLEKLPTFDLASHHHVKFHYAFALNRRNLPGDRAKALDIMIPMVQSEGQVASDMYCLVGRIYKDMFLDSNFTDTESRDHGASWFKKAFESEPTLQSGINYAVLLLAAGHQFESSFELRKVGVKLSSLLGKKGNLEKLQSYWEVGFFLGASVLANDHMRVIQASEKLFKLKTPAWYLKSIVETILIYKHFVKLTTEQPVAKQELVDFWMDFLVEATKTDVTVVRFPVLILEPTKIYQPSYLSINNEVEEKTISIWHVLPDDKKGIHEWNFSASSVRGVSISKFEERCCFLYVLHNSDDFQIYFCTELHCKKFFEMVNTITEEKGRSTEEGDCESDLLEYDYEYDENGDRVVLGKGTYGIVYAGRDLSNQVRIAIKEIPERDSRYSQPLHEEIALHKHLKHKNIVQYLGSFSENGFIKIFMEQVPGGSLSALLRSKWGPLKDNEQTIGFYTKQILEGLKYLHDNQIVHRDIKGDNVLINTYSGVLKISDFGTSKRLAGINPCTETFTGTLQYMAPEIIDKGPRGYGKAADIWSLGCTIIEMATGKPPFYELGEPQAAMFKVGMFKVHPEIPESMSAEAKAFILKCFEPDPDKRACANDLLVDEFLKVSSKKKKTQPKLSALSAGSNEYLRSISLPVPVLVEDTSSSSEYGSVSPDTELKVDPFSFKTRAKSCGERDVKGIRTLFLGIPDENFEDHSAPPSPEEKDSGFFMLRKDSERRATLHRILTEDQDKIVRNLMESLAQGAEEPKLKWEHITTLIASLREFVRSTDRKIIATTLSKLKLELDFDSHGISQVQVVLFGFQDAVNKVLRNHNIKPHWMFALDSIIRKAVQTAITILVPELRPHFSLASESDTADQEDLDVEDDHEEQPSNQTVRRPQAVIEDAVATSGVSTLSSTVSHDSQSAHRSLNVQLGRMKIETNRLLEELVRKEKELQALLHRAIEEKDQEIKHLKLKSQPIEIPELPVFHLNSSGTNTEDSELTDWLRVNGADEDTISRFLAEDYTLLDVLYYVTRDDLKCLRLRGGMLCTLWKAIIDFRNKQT
# Sequence of PLK3 (Q9H4B4 whole entry): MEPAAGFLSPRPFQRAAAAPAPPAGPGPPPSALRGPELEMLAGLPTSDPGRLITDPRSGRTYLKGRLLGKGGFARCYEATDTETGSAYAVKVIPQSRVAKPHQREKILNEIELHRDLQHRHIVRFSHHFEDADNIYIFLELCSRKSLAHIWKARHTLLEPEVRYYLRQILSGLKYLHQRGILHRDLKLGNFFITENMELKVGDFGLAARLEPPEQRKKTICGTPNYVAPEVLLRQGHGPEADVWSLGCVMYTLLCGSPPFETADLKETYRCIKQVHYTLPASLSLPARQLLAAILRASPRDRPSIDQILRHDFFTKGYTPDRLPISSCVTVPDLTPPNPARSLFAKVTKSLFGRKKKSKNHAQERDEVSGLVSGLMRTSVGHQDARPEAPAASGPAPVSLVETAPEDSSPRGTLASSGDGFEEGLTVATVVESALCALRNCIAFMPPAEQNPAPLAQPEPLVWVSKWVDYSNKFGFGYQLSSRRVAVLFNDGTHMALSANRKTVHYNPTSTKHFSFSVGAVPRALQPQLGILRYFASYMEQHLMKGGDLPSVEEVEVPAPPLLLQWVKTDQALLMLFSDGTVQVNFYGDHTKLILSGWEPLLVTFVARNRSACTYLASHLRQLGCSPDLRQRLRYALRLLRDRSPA
smiles,measurement,setting,value
"O=C(/C=C/c1cnccc1-c1ccc(F)cc1)Nc1ccc(CCc2nnco2)cc1 [T-418, (2E)-3-(4-(4-fluorophenyl)pyridin-3-yl)-N-(4-(2-(1,3,4-oxadiazol-2-yl)ethyl)phenyl)acrylamide]",remaining binding at 0.3 µM,ASK1; sheet T-418,92%
same,remaining binding at 0.3 µM,AXL; sheet T-418,73%
same,remaining binding at 0.3 µM,BMPR2; sheet T-418,86%
same,remaining binding at 0.3 µM,CAMK2A; sheet T-418,96%
same,remaining binding at 0.3 µM,CDK3; sheet T-418,95%
same,remaining binding at 0.3 µM,CLK1; sheet T-418,100%
same,remaining binding at 0.3 µM,CSF1R-autoinhibited; sheet T-418,86%
same,remaining binding at 0.3 µM,EGFR(G719C); sheet T-418,72%
same,remaining binding at 0.3 µM,EGFR(L861Q); sheet T-418,86%
same,remaining binding at 0.3 µM,FLT3(D835H); sheet T-418,100%
same,remaining binding at 0.3 µM,GRK4; sheet T-418,100%
same,remaining binding at 0.3 µM,[1]; sheet T-418,69%
same,remaining binding at 0.3 µM,LKB1; sheet T-418,53%
same,remaining binding at 0.3 µM,MST4; sheet T-418,63%
same,remaining binding at 0.3 µM,NEK1; sheet T-418,90%
same,remaining binding at 0.3 µM,PAK4; sheet T-418,99%
same,remaining binding at 0.3 µM,PHKG1; sheet T-418,90%
same,remaining binding at 0.3 µM,PIK3CA(I800L); sheet T-418,51%
same,remaining binding at 0.3 µM,PIK3CB; sheet T-418,96%
same,remaining binding at 0.3 µM,PIK3CG; sheet T-418,100%
same,remaining binding at 0.3 µM,PIM2; sheet T-418,89%
same,remaining binding at 0.3 µM,PLK3; sheet T-418,82%
"Cc1ncccc1Oc1sc(C(N)=O)c2c1-c1c(cnn1C)CC2 [T-474, 1-methyl-8-((2-methylpyridin-3-yl)oxy)-4,5-dihydro-1H-thieno[3,4-g]indazole-6-carboxamide]",remaining binding at 0.3 µM,ASK1,81%
same,remaining binding at 0.3 µM,AXL,83%
same,remaining binding at 0.3 µM,BMPR2,99%
same,remaining binding at 0.3 µM,CAMK2A,97%
same,remaining binding at 0.3 µM,CDK3,100%
same,remaining binding at 0.3 µM,CLK1,32%
same,remaining binding at 0.3 µM,CSF1R-autoinhibited,100%
same,remaining binding at 0.3 µM,EGFR(G719C),99%
same,remaining binding at 0.3 µM,EGFR(L861Q),91%
same,remaining binding at 0.3 µM,FLT3(D835H),58%
same,remaining binding at 0.3 µM,GRK4,100%
same,remaining binding at 0.3 µM,[1],73%
same,remaining binding at 0.3 µM,LKB1,67%
same,remaining binding at 0.3 µM,MST4,64%
same,remaining binding at 0.3 µM,NEK1,95%
same,remaining binding at 0.3 µM,PAK4,100%
same,remaining binding at 0.3 µM,PHKG1,100%
same,remaining binding at 0.3 µM,PIK3CA(I800L),77%
same,remaining binding at 0.3 µM,PIK3CB,100%
same,remaining binding at 0.3 µM,PIK3CG,88%
same,remaining binding at 0.3 µM,PIM2,80%
same,remaining binding at 0.3 µM,PLK3,88%
